Source: ChEMBL document CHEMBL3244201, “Synthesis and specific pressor activity of [1-aspartic acid,5-valine,9-serine]angiotensin I ("fowl angiotensin I")” (1977)

Assays:
Type in all cases: functional
Rattus norvegicus [1] = species on record: Rattus norvegicus; experiment: Pressor activity in rat assessed as molar basis relative to mammalian [Val5]angiotensin 2
Rattus norvegicus [2] = species on record: Rattus norvegicus; experiment: Pressor activity in ganglion-blocked vagotomized rat assessed as weight basis relative to mammalian [Ile5]angiotensin 2
Rattus norvegicus [3] = species on record: Rattus norvegicus; experiment: Pressor activity in rat assessed as molar basis relative to mammalian [Val5]angiotensin 1
Rattus norvegicus [4] = species on record: Rattus norvegicus; experiment: Pressor activity in rat assessed as weight basis relative to mammalian [Val5]angiotensin 2
Rattus norvegicus [5] = species on record: Rattus norvegicus; experiment: Pressor activity in rat assessed as molar basis relative to mammalian [Ile5]angiotensin 2
Rattus norvegicus [6] = species on record: Rattus norvegicus; experiment: Pressor activity in rat assessed as weight basis relative to mammalian [Ile5]angiotensin 1
Rattus norvegicus [7] = species on record: Rattus norvegicus; experiment: Pressor activity in rat assessed as weight basis relative to mammalian [Val5]angiotensin 1
Rattus norvegicus [8] = species on record: Rattus norvegicus; experiment: Pressor activity in rat assessed as molar basis relative to mammalian [Ile5]angiotensin 1
Rattus norvegicus [9] = species on record: Rattus norvegicus; experiment: Pressor activity in rat assessed as weight basis relative to mammalian [Ile5]angiotensin 2

Compound	Activity (Rattus norvegicus [1])	Activity (Rattus norvegicus [2])	Activity (Rattus norvegicus [3])	Activity (Rattus norvegicus [4])	Activity (Rattus norvegicus [5])	Activity (Rattus norvegicus [6])	Activity (Rattus norvegicus [7])	Activity (Rattus norvegicus [8])	Activity (Rattus norvegicus [9])
H-DRVYVHPFSL-OH	85.1%	91.2%	180.8%	69.2%	114.4%	160.4%	182.8%	157%	94.1%
H-DRVYVHPF-OH [[Val5] - ANGIOTENSIN II]				100%					136%
CC[C@H](C)[C@H](NC(=O)[C@H](Cc1ccc(O)cc1)NC(=O)[C@@H](NC(=O)[C@H](CCCNC(=N)N)NC(=O)[C@@H](N)CC(=O)O)C(C)C)C(=O)N[C@@H](Cc1cnc[nH]1)C(=O)N1CCC[C@H]1C(=O)N[C@@H](Cc1ccccc1)C(=O)O [ANGIOTENSIN II]				73.5%					100%
H-DRVYIHPFHL-OH				43.1%					58.6%
H-DRVYVHPFHL-OH				37.8%					51.5%
